Measurements as given in BindingDB's records for doi:10.1021/acs.jmedchem.5b01538 (Glaxosmithkline, 2016).

Biological target: T1, Lysine-specific demethylase 4C (Homo sapiens, UniProt Q9H3R0)
T1 sequence (Q9H3R0 whole entry): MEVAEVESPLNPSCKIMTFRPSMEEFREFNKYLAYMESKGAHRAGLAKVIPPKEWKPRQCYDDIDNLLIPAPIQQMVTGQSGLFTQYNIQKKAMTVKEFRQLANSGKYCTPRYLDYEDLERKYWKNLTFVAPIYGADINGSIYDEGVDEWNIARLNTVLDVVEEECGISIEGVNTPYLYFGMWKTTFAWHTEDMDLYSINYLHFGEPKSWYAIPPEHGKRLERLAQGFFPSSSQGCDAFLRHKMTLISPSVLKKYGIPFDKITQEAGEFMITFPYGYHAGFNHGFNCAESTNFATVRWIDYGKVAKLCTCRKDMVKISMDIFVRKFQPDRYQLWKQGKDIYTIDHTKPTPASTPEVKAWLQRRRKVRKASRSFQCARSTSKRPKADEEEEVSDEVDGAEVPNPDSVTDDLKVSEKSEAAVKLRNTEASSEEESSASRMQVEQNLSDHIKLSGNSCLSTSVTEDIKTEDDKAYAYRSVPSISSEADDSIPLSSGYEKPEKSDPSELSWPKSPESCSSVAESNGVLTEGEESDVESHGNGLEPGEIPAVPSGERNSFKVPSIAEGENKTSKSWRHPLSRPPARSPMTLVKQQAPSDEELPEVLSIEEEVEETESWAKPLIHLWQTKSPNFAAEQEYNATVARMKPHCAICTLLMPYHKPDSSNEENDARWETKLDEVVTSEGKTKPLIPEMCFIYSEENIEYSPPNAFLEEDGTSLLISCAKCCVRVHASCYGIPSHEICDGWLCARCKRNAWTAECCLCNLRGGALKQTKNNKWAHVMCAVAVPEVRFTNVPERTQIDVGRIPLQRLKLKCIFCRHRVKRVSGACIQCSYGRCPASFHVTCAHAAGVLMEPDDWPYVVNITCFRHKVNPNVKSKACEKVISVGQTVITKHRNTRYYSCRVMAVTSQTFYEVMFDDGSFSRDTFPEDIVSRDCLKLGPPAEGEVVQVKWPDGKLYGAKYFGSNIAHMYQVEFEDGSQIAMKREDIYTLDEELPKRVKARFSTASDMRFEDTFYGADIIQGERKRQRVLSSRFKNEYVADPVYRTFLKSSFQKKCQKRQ
Assay: Inhibition of N-terminal his-tagged full-length human KDM4C transfected in U2OS cells assessed as inhibition of H3K9Me3 demethylation for 24 hrs

Row | IC50 | Compound
1 | 3.98 µM | CC(C)c1ccc(Oc2nc3cnccc3c(=O)[nH]2)cn1
2 | 3.98 µM | O=c1[nH]c(Oc2ccc(Cl)c(O)c2)nc2cnccc12
